Results as given in the Kinase Knowledgebase extract (Sharma et al. 2016).

Biological target: ROCK2 (human) (UniProt O75116)
Test: Inhibition of ROCK2 Kinase Activity

Chain of ROCK2 (human) (O75116 whole entry, looked up): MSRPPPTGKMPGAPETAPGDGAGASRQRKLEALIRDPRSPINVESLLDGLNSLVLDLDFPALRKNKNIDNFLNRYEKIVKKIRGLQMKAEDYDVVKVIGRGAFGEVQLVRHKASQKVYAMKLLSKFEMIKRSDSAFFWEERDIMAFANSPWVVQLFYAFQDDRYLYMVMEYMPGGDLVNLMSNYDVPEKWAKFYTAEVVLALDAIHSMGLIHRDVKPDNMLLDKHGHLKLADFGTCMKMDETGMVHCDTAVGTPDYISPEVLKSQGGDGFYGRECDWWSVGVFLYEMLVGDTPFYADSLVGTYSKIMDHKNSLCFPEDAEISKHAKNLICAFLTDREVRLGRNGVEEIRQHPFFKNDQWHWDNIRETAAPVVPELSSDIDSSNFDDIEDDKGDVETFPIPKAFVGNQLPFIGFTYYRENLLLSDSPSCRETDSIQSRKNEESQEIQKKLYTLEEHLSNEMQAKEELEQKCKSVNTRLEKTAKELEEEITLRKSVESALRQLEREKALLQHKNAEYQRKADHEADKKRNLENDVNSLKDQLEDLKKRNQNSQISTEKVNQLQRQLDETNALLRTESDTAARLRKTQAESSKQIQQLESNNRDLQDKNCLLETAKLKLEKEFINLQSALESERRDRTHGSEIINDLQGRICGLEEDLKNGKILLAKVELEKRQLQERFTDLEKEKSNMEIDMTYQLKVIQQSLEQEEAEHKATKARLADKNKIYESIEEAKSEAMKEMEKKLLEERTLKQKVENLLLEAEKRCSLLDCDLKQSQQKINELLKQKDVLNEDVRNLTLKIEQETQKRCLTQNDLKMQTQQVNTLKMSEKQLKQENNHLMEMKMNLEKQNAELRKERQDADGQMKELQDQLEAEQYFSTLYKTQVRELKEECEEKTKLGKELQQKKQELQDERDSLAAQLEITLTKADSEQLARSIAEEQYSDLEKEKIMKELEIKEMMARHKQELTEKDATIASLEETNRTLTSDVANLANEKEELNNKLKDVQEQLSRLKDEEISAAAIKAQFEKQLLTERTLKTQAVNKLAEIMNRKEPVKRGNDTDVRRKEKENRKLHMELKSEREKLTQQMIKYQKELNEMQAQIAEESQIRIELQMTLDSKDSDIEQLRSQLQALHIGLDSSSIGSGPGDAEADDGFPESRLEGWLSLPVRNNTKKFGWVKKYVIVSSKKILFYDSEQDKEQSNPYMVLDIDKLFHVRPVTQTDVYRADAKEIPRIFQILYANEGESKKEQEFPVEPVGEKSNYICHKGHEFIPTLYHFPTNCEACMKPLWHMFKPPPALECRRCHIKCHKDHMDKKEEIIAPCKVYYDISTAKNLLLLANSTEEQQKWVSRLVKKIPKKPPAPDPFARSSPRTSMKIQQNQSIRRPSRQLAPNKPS

Row | SMILES | IC50 [µM]
1 | O=C(NCc1nc(-c2c[nH]c3ncccc23)n[nH]1)c1cccc(F)c1 | > 5
2 | O=C(Cc1ccc(C(F)(F)F)cc1)NCc1nc(-c2ccncc2)n[nH]1 | > 5
3 | Cc1ccc(F)cc1C(=O)NCc1nc(-c2c[nH]c3ncccc23)n[nH]1 | > 5
4 | O=C(NCc1nc(-c2ccncc2)n[nH]1)c1ccc(Oc2cccc(O)c2)cc1 | ≤ 5
5 | CC(C)(C)c1ccc(C(=O)NCc2nc(-c3ccncc3)n[nH]2)cc1 | > 5
6 | O=C(CCc1ccccc1Br)NCc1nc(-c2c[nH]c3ncccc23)n[nH]1 | > 5
7 | O=C(NCc1nc(-c2ccncc2)n[nH]1)c1ccc2c(c1)OCO2 | > 5
8 | O=C(NCc1nc(-c2c[nH]c3ncccc23)n[nH]1)c1c2ccccc2cc2ccccc12 | > 5
9 | CC(C)(C)C(=O)NCc1nc(-c2c[nH]c3ncccc23)n[nH]1 | > 5
10 | O=C(NCc1nc(-c2ccncc2)n[nH]1)c1cscn1 | > 5
11 | O=C(NCc1nc(-c2c[nH]c3ncccc23)n[nH]1)c1cc(F)ccc1[N+](=O)[O-] | > 5
12 | O=C(NCc1nc(-c2ccncc2)n[nH]1)c1cccc(I)c1 | > 5
13 | Cc1ccc(SCC(=O)NCc2nc(-c3c[nH]c4ncccc34)n[nH]2)cc1 | > 5
14 | CC(C(=O)NCc1nc(-c2ccncc2)n[nH]1)c1ccc(O)cc1 (stereo not drawn) | > 5
15 | O=C(NCc1nc(-c2c[nH]c3ncccc23)n[nH]1)c1cc(O)c(O)c(O)c1 | > 5
16 | CC(=O)Oc1cccc(C(=O)NCc2nc(-c3ccncc3)n[nH]2)c1 | > 5
17 | Cc1cc(C(=O)NCc2nc(-c3c[nH]c4ncccc34)n[nH]2)cc(Cl)n1 | > 5
18 | COc1ccc(Br)c(C(=O)NCc2nc(-c3c[nH]c4ncccc34)n[nH]2)c1 | > 5
19 | Cc1ccc(C(=O)NCc2nc(-c3c[nH]c4ncccc34)n[nH]2)cc1C | > 5
20 | COc1ccc(C(=O)NCc2nc(-c3c[nH]c4ncccc34)n[nH]2)c(OC)c1OC | > 5
21 | CS(=O)(=O)Nc1cccc(C(=O)NCc2nc(-c3ccncc3)n[nH]2)c1 | > 5
22 | CC(C)C(=O)Oc1ccc(C(=O)NCc2nc(-c3ccncc3)n[nH]2)c(O)c1 | ≤ 5

Row | SMILES | IC50 [µM]
23 | NC(=O)c1cc(-c2ccncc2)n[nH]1 | > 5
24 | CC(C)Oc1ccc(C(=O)NCc2nc(-c3c[nH]c4ncccc34)n[nH]2)cc1 | > 5
25 | O=C(NCc1nc(-c2c[nH]c3ncccc23)n[nH]1)c1ccc(F)cc1Cl | > 5
26 | CCCOc1ccc(C(=O)NCc2nc(-c3ccncc3)n[nH]2)cc1 | > 5
27 | Cc1nc(Br)sc1C(=O)NCc1nc(-c2c[nH]c3ncccc23)n[nH]1 | > 5
28 | O=C(NCc1nc(-c2ccncc2)n[nH]1)c1n[nH]c2ccccc12 | ≤ 5
29 | CN(Cc1nc(-c2ccncc2)n[nH]1)C(=O)c1ccc(O)cc1O | > 5
30 | O=C(NCc1nc(-c2c[nH]c3ncccc23)n[nH]1)c1ccccc1C(=O)c1ccc(F)cc1 | > 5
31 | O=C(NCc1nc(-c2ccncc2)n[nH]1)C1CCCN1C(=O)OCc1ccccc1 (stereo not drawn) | > 5
32 | O=C(Cc1cccc(O)c1)NCc1nc(-c2c[nH]c3ncccc23)n[nH]1 | > 5
33 | O=C(NCc1nc(-c2c[nH]c3ncccc23)n[nH]1)c1cc(F)c(F)cc1Cl | > 5
34 | Cc1cccc(C(=O)NCc2nc(-c3ccncc3)n[nH]2)c1C | > 5
35 | O=C(NCc1nc(-c2ccncc2)n[nH]1)c1cc(Cl)ccn1 | > 5
36 | COc1ccc(Cl)cc1C(=O)NCc1nc(-c2ccncc2)n[nH]1 | > 5
37 | Cc1ccc(C(=O)NCc2nc(-c3ccncc3)n[nH]2)cc1 | > 5
38 | O=C(NCc1nc(-c2ccncc2)n[nH]1)C(F)(F)F | > 5
39 | O=C(NCc1nc(-c2ccncc2)n[nH]1)C1CCCCC1 | > 5
40 | CC(=O)Oc1ccccc1C(=O)NCc1nc(-c2ccncc2)n[nH]1 | ≤ 5
41 | O=C(NCc1nc(-c2c[nH]c3ncccc23)n[nH]1)c1ccc(F)c(F)c1 | > 5
42 | O=C(NCc1nc(-c2ccncc2)n[nH]1)c1ccnc(Cl)c1 | > 5
43 | O=C(NCc1nc(-c2ccncc2)n[nH]1)C1CCc2ccccc21 (stereo not drawn) | > 5
44 | O=C(C=Cc1ccccc1Cl)NCc1nc(-c2ccncc2)n[nH]1 | > 5

Row | SMILES | IC50 [µM]
45 | O=C(NCc1nc(-c2c[nH]c3ncccc23)n[nH]1)c1c(F)cccc1Cl | > 5
46 | O=C(NCc1nc(-c2c[nH]c3ncccc23)n[nH]1)c1cc(O)ccc1[N+](=O)[O-] | > 5
47 | O=C(Cc1ccc(O)c(Cl)c1)NCc1nc(-c2ccncc2)n[nH]1 | > 5
48 | CC(=O)Oc1ccccc1C(=O)NCc1nc(-c2c[nH]c3ncccc23)n[nH]1 | > 5
49 | O=C(CCc1nc2ccccc2[nH]1)NCc1nc(-c2ccncc2)n[nH]1 | > 5
50 | Cc1cccc(C(=O)NCc2nc(-c3c[nH]c4ncccc34)n[nH]2)c1[N+](=O)[O-] | > 5
51 | O=C(NCc1nc(-c2ccncc2)n[nH]1)c1cc(O)c(O)c(O)c1 | > 5
52 | O=C(O)c1ccc(C(=O)NCc2nc(-c3ccncc3)n[nH]2)cc1 | ≤ 5
53 | COc1ccc(C(=O)NCc2nc(-c3ccncc3)n[nH]2)cc1O | > 5
54 | COc1ccc(C(=O)NCc2nc(-c3ccncc3)n[nH]2)cc1 | ≤ 5
55 | Cc1cc(C(=O)NCc2nc(-c3c[nH]c4ncccc34)n[nH]2)ccc1Br | > 5
56 | COc1cc(OC)cc(C(=O)NCc2nc(-c3c[nH]c4ncccc34)n[nH]2)c1 | > 5
57 | O=C(NCc1nc(-c2ccncc2)n[nH]1)c1cccc([N+](=O)[O-])c1 | > 5
58 | CC(=O)c1ccccc1C(=O)NCc1nc(-c2c[nH]c3ncccc23)n[nH]1 | > 5
59 | COc1cc(Cl)ccc1C(=O)NCc1nc(-c2c[nH]c3ncccc23)n[nH]1 | > 5
60 | Cc1c(C(=O)NCc2nc(-c3ccncc3)n[nH]2)oc2ccccc12 | > 5
61 | CS(=O)(=O)Nc1cccc(C(=O)NCc2nc(-c3c[nH]c4ncccc34)cs2)c1 | ≤ 5
62 | Cc1c(C(=O)NCc2nc(-c3c[nH]c4ncccc34)n[nH]2)oc2ccccc12 | > 5
63 | O=C(NCc1nc(-c2ccncc2)n[nH]1)c1ccc2cc(O)ccc2c1 | ≤ 5
64 | CC(C)(C)C(=O)Oc1ccc(C(=O)NCc2nc(-c3ccncc3)n[nH]2)c(O)c1 | > 5
65 | CC(C(=O)NCc1nc(-c2c[nH]c3ncccc23)n[nH]1)c1ccc(O)cc1 (stereo not drawn) | > 5
66 | O=C(NCc1nc(-c2c[nH]c3ncccc23)n[nH]1)c1ccccc1 | > 5

Row | SMILES | IC50 [µM]
67 | CC(NC(=O)c1ccc(O)cc1O)c1nc(-c2ccncc2)n[nH]1 (stereo not drawn) | ≤ 5
68 | O=C(Cc1cccc(O)c1)NCc1nc(-c2ccncc2)n[nH]1 | > 5
69 | CC(=O)c1ccc(C(=O)NCc2nc(-c3ccncc3)n[nH]2)cc1 | ≤ 5
70 | O=C(CCc1ccccc1O)NCc1nc(-c2c[nH]c3ncccc23)n[nH]1 | > 5
71 | Cc1cc(C(=O)NCc2nc(-c3c[nH]c4ncccc34)n[nH]2)n[nH]1 | > 5
72 | Cc1ccc(C(=O)NCc2nc(-c3c[nH]c4ncccc34)n[nH]2)cc1F | > 5
73 | O=C(NCc1nc(-c2ccncc2)n[nH]1)c1ccc(I)cc1 | > 5
74 | CCCCCCCC(=O)NCc1nc(-c2c[nH]c3ncccc23)n[nH]1 | > 5
75 | O=C(NCc1nc(-c2ccncc2)n[nH]1)c1ccc(F)c([N+](=O)[O-])c1 | > 5
76 | O=C(NCc1nc(-c2ccncc2)n[nH]1)c1cc2ccccc2s1 | ≤ 5
77 | O=C(NCc1nc(-c2c[nH]c3ncccc23)n[nH]1)C1CCc2ccccc2C1 (stereo not drawn) | > 5
78 | CN(C=O)c1ccc(C(=O)NCc2nc(-c3c[nH]c4ncccc34)n[nH]2)cc1 | > 5
79 | COc1cc(C(=O)NCc2nc(-c3c[nH]c4ncccc34)n[nH]2)c([N+](=O)[O-])cc1OC | > 5
80 | CC(=O)NCC(=O)NCc1nc(-c2ccncc2)n[nH]1 | > 5
81 | O=C(CCc1cccc(Br)c1)NCc1nc(-c2ccncc2)n[nH]1 | > 5
82 | O=C(NCc1nc(-c2c[nH]c3ncccc23)n[nH]1)c1csc2ccccc12 | > 5
83 | O=C(NCc1nc(-c2ccncc2)n[nH]1)c1cc2ccccc2cc1O | ≤ 5
84 | O=C(NCc1nc(-c2c[nH]c3ncccc23)n[nH]1)c1cc(F)c(F)cc1[N+](=O)[O-] | > 5
85 | CC(C)(C)c1ccc(C(=O)NCc2nc(-c3c[nH]c4ncccc34)n[nH]2)cc1 | > 5
86 | O=C(NCc1nc(-c2ccncc2)n[nH]1)c1cc(Cl)ccc1[N+](=O)[O-] | > 5
87 | CCCCCc1ccc(C(=O)NCc2nc(-c3c[nH]c4ncccc34)n[nH]2)cc1 | > 5
88 | O=C(C=Cc1ccccc1C(F)(F)F)NCc1nc(-c2ccncc2)n[nH]1 | > 5

Row | SMILES | IC50 [µM]
89 | CCCCOc1ccc(C(=O)NCc2nc(-c3ccncc3)n[nH]2)cc1 | > 5
90 | O=C(NCc1nc(-c2c[nH]c3ncccc23)n[nH]1)c1cccnc1 | > 5
91 | O=C(NCc1nc(-c2c[nH]c3ncccc23)n[nH]1)c1ccc(O)cc1O | ≤ 5
92 | O=C(NCc1nc(-c2ccncc2)n[nH]1)c1cc(O)ccc1[N+](=O)[O-] | > 5
93 | CCCCCc1ccc(C(=O)NCc2nc(-c3ccncc3)n[nH]2)cc1 | > 5
94 | O=C(NCc1nc(-c2ccncc2)n[nH]1)c1c(O)ccc2ccccc12 | > 5
95 | O=C(NCc1nc(-c2ccncc2)n[nH]1)c1ccccc1[N+](=O)[O-] | > 5
96 | O=C(NCc1nc(-c2c[nH]c3ncccc23)n[nH]1)c1ccc(C(F)(F)F)cc1[N+](=O)[O-] | > 5
97 | Cn1cnc(C(=O)NCc2nc(-c3c[nH]c4ncccc34)n[nH]2)c1 | > 5
98 | COc1ccc(C(=O)NCc2nc(-c3ccncc3)n[nH]2)cc1C | > 5
99 | O=C(NCc1nc(-c2ccncc2)n[nH]1)c1ccc(-c2ccc(O)cc2)cc1 | > 5
100 | O=C(NCc1nc(-c2c[nH]c3ncccc23)n[nH]1)c1cc(F)cc(F)c1 | > 5
101 | CC(C)CC(NC(=O)OC(C)(C)C)C(=O)NCc1nc(-c2c[nH]c3ncccc23)n[nH]1 (stereo not drawn) | > 5
102 | CCN(CC)c1ccc(C(=O)NCc2nc(-c3ccncc3)n[nH]2)cc1 | > 5
103 | O=C(CC1Cc2ccccc2C1)NCc1nc(-c2ccncc2)n[nH]1 | > 5
104 | O=C(NCc1nc(-c2c[nH]c3ncccc23)n[nH]1)c1cccc(F)c1F | > 5
105 | Cc1ccccc1OCC(=O)NCc1nc(-c2ccncc2)n[nH]1 | > 5
106 | COc1cc(C(=O)NCc2nc(-c3c[nH]c4ncccc34)n[nH]2)cc(OC)c1O | > 5
107 | Cc1cccc(C(=O)NCc2nc(-c3ccncc3)c[nH]2)c1O | ≤ 5
108 | COc1ccc(OC)c(C(=O)NCc2nc(-c3ccncc3)n[nH]2)c1 | > 5
